Reference: ChEMBL document CHEMBL1287732, “Development of novel bisubstrate-type inhibitors of histone methyltransferase SET7/9” (Bioorg Med Chem, 2010)
Activity calls are given as the source filed them. The rule behind the calls is not given here.

Target: T1, Histone-lysine N-methyltransferase SETD7 (Homo sapiens) (UniProt Q8WTS6)
T1 sequence (whole entry): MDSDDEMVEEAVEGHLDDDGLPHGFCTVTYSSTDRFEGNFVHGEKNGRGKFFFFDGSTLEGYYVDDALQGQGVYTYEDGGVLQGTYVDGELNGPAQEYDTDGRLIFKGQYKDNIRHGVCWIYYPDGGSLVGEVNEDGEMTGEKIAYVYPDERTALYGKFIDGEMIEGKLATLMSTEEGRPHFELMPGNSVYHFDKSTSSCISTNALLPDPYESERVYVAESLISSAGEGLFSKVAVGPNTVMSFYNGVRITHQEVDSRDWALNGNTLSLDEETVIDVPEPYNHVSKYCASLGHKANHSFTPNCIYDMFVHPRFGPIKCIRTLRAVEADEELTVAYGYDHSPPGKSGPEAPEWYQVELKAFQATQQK
Experiment: Inhibition of human recombinant SET7/9 in cell free system assessed as monomethylation of histone H3 Lys4 residue after 1 hr in presence of 2 uM AdoMet

inhibition	SMILES
Active	CNCCN(CC[C@H](N)C(=O)O)C[C@H]1O[C@@H](n2cnc3c(N)ncnc32)[C@H](O)[C@@H]1O
Active	CCCNCCN(CC[C@H](N)C(=O)O)C[C@H]1O[C@@H](n2cnc3c(N)ncnc32)[C@H](O)[C@@H]1O
inactive	CCCCCCN(CC[C@H](N)C(=O)O)C[C@H]1O[C@@H](n2cnc3c(N)ncnc32)[C@H](O)[C@@H]1O
Active	CCCCCCNCCN(CC[C@H](N)C(=O)O)C[C@H]1O[C@@H](n2cnc3c(N)ncnc32)[C@H](O)[C@@H]1O
Active	Nc1ncnc2c1ncn2[C@@H]1O[C@H](CN(CCNCCc2ccccc2)CC[C@H](N)C(=O)O)[C@@H](O)[C@H]1O
